Assay results published in US20090220982A1, “COMPOSITIONS AND METHODS FOR DETERMINING NEPHROTOXICITY” (Achaogen Inc.., priority 2008, published 2009).
Where two headings read alike, the source gives them in different places.

Experiments:
[1] = tested on: renal brush border membranes; details: in vitro; cited from earlier work
[2] = rats, cited from earlier work
[3] = 14-day rat nephrotoxicity model
Excerpt: The rat in vivo assays provided information in the form of acute toxicity, changes in Blood Urea Nitrogen (BUN) and serum creatinine levels over time, as well as histopathology changes in the kidneys of animals sacrificed at the end of the study. Elevation in BUN or serum creatinine is one of the markers routinely monitored in the clinic as an indication of aminoglycoside nephrotoxicity.

[4] = cited from earlier work
[5] = β-thalassemia patients; cited from earlier work
[6] = cited from earlier work; remark: listed apart in the source
[7] = co-therapy with gentamicin, guinea pigs; cited from earlier work
erythrocytes = details: cited from earlier work
[8] = patients, cited from earlier work
HK-2 cells = test: HK-2 in vitro nephrotoxicity assay (CASPASEGLO caspase luminescence); type: cell-based, human
Method: An in vitro nephrotoxicity assay was conducted using the human kidney epithelial cell line, HK-2.
HK-2 cells were cultured in KSFM, with 5 ng/mL epidermal growth factor (EGF) and 0.05 mg/mL bovine pituitary extract (BPE). Cells were maintained at sub-confluence and used to initiate the assay when they reached 80% confluence.
Diluted compounds were added to plates. The plates were subsequently returned to the incubator overnight.
Luminescence was detected using a plate reading luminometer.
A human kidney proximal tubule cell line, HK-2 (ATCC #CRL-2190) is cultured in Keratinocyte-Serum Free Medium (K-SFM) (Invitrogen 17005-042) with 5 ng/mL of human recombinant epidermal growth factor (EGF) and 0.05 mg/mL Bovine Pituitary Extract (BPE). Culture medium containing EGF and/or BPE is not filtered subsequent to growth factor addition, and fresh growth factors are added to the culture medium after two weeks. The HK-2 cells are split so that they are 80% confluent on the day they need to be plated into 96 well plates. These cells are not allowed to become confluent.
Remove the HK-2 cells from the plate using trypsin-EDTA. Wash the plate with D-PBS. Add 0.5 mL trypsin, and incubate for 1 minute at room temperature or until cells start to lift off plate. Inactivate trypsin and harvest cells by adding prewarmed culture medium (37° C.) to the plate. […]
Thaw the CASPASEGLO reagents (CASPASEGLO 3/7 Assay, Promega G8093 10×10 mL or G8092 100 mL) at room temperature. For reagent addition to plates after 31 hour compound incubation: (i) remove plates from incubator (30.5 hours after adding compounds) for approximately 30 minutes to bring to room temperature; (ii) mix CASPASEGLO reagents according to manufacturer's instructions; (iii) add 50 μL of reagent/well to 96 well plates using BioMek®FX with tips 2 mm from bottom of reservoir well (Beckman Coulter); (iv) place plates on shaker platform and shake gently for 30 seconds; (v) incubate at room temperature for 30 minutes; (vi) place plates on shaker platform and shake gently for 30 seconds; and (vii) read plate 30-60 minutes after reagents are added, Analyst™ HT (LJL Biosystems™). The settings for the Analyst™ HT are: (i) default luminescence method; (ii) luminescence height, 1.5 mm; (iii) 5 readings per well; (iv) integration time of 100000 μs; and (v) attenuator out.
The average luminescence values are calculated along with the standard deviation of the replicates. The concentration of the aminoglycoside tested is graphed versus the corresponding luminescence reading. The area under the curve (AUC) is calculated for each experimental compound and for gentamicin. The EC50 can then be calculated for each experimental compound and gentamicin, using methods well known in the art.

LLC-PK1 cells = details: gentamicin introduced by electroporation; cited from earlier work

polyaspartic acid
aminoglycoside binding to renal brush border membranes [1]: prevent aminoglycoside binding to renal brush border membranes
creatinine elevation or histopathological changes ([2]; 16 weeks after the two week treatment): no creatinine elevation or histopathological changes
gentamicin concentration in kidneys versus gentamicin alone ([2]; end of 14 day treatment, co-dosed with polyaspartic acid): five-fold higher gentamicin concentration in their kidneys

[H]/N=C(/N)N[C@H]1[C@H](O)[C@@H](O)[C@H](O[C@@H]2O[C@@H](C)[C@](O)(C=O)[C@H]2O[C@@H]2O[C@@H](CO)[C@H](O)[C@@H](O)[C@@H]2NC)[C@@H](N/C(N)=N\[H])[C@@H]1O [streptomycin]
rank order of relative in vivo nephrotoxicity ([3]; rat, in vivo): least nephrotoxic aminoglycoside tested

O=C(O)c1cccc(O)c1O [DHB, 2,3-dihydroxybenzoate]
solubility in aqueous solution [4]: poor solubility in aqueous solution
toxicity of oral doses for one year [5]: no toxicity was observed
elevations in BUN and serum creatinine after gentamicin ([6]; rat, gentamicin treatment for eight days): reduced elevations in blood, urea, nitrogen (BUN) and serum creatinine
protection from gentamicin nephrotoxicity ([6]; rats): only partial protection from gentamicin nephrotoxicity
shifts in auditory thresholds [7]: significantly lower shifts in auditory thresholds
H2O2 induced membrane peroxidation (erythrocytes): inhibits H2O2 induced membrane peroxidation in erythrocytes

CC(=O)Oc1ccccc1C(=O)O [aspirin]
hearing loss versus gentamicin alone ([8]; intravenous gentamicin and oral aspirin): significantly less hearing loss
side effect of aspirin treatment [8]: caused gastric bleeding in some patients

NCC[C@H](O)C(=O)N[C@@H]1C[C@H](N)[C@@H](O[C@H]2O[C@H](CN)[C@@H](O)[C@H](O)[C@H]2O)[C@H](O)[C@H]1O[C@H]1O[C@H](CO)[C@@H](O)[C@H](N)[C@H]1O [amikacin]
rank order of relative in vivo nephrotoxicity ([3]; rat, in vivo): followed by amikacin, neomycin, and gentamicin
dose response curve of luminescence signal (induction of apoptosis) / EC50 (HK-2 cells): did not produce a maximal response at the highest concentration tested
rank order of nephrotoxicity by EC50 in the in vitro HK-2 assay (HK-2 cells): least nephrotoxic aminoglycoside tested

gentamicin
rank order of relative in vivo nephrotoxicity ([3]; 14-day rat model, Example 3, FIG. 4): followed by amikacin, neomycin, and gentamicin
rank order of nephrotoxicity by minimum concentration of compound that produced an increase in BUN ([3]; 14-day rat model, six compounds, FIG. 3A): followed by apramycin, gentamicin and neomycin, compound A, and compound B
dose response curve of luminescence signal (induction of apoptosis) / EC50 (HK-2 cells; HK-2 cells, highest concentration tested 500 μg/mL, FIG. 2): produced a full dose response curve over the concentration range tested
rank order of nephrotoxicity by EC50 in the in vitro HK-2 assay (HK-2 cells; six compounds, FIG. 3A): followed by apramycin, gentamicin and neomycin, compound A, and compound B
apoptosis response (LLC-PK1 cells): dose-dependent apoptosis response at much lower gentamicin concentrations
